Experimental findings from patent EP0927179B1, “SUBSTITUTED BENZOCYCLOHEPTAPYRIDINE DERIVATIVES USEFUL FOR INHIBITION OF FARNESYL PROTEIN TRANSFERASE” (SCHERING CORPORATION, priority 1996, dated 1998) are described below.

Structures are written as SMILES.

For test [1], the target named is T1, farnesyl protein transferase (Homo sapiens, UniProt P49354+P49356). The test is described as follows: FPT IC50 (H-ras), inhibition of farnesyl protein transferase, in vitro enzyme assay. Type of test: biochemical. The procedure: (§1) FPT IC50 (inhibition of farnesyl protein transferase, in vitro enzyme assay) and COS Cell IC50 (Cell-Based Assay) were determined following the assay procedures described in WO 95/10516, published April 20, 1995. GGPT IC50 (inhibition of geranylgeranyl protein transferase, in vitro enzyme assay), Cell Mat Assay, and anti-tumor activity (in vivo anti-tumor studies) could be determined by the assay procedures described in WO 95/10516. The disclosure of WO 95/10516 is incorporated herein by reference thereto.

The next test relates to Human tumor cells. Nature of the test: Soft Agar Assay (anchorage-independent growth). Type of test: cell-based. The method, then:
Anchorage-independent growth is a characteristic of tumorigenic cell lines. Human tumor cells are suspended in growth medium containing 0.3% agarose and an indicated concentration of a farnesyl transferase inhibitor. The solution is overlayed onto growth medium solidified with 0.6% agarose containing the same concentration of farnesyl transferase inhibitor as the top layer. After the top layer is solidified, plates are incubated for 10-16 days at 37°C under 5% CO2 to allow colony outgrowth. After incubation, the colonies are stained by overlaying the agar with a solution of MTT (3-[4,5-dimethyl-thiazol-2-yl]-2,5-diphenyltetrazolium bromide, Thiazolyl blue) (1 mg/mL in PBS). Colonies can be counted and the IC50's can be determined.

The test system of the next test is COS Cell. The test is described as follows: COS Cell IC50 (Cell-Based Assay). The method, then: as §1
Test [2] concerns the target T1, farnesyl protein transferase. Nature of the test: FPT IC50 (K-ras), inhibition of farnesyl protein transferase, in vitro enzyme assay. Type of test: biochemical. The method, then:
as §1

T1 sequence (P49356 whole entry, one chain of several): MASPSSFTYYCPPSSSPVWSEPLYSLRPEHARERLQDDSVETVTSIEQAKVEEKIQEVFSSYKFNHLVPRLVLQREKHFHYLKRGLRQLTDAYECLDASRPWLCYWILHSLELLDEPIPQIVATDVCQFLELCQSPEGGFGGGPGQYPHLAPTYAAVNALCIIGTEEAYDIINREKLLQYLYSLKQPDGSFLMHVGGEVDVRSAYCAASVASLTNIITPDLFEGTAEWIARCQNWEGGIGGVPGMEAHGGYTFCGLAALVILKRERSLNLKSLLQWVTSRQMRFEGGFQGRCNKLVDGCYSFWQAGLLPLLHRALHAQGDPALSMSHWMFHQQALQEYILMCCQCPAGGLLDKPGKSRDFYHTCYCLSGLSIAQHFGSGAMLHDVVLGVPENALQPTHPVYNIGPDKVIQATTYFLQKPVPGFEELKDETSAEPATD

In test [1], `O=C(CC1CCN(S(=O)(=O)c2ccccc2)CC1)N1CCC([C@H]2c3ncc(Br)cc3CCc3cc(Cl)cc(Br)c32)CC1` [Example 1] showed an IC50 of 72 nM.

Regarding `CS(=O)(=O)N1CCC(CC(=O)N2CCC([C@H]3c4ncc(Br)cc4CCc4cc(Cl)cc(Br)c43)CC2)CC1` [Example 2], the half-maximal inhibitory concentration (IC50) in the test with Human tumor cells came to 50 nM.

As for `CN(C)S(=O)(=O)N1CCC(CC(=O)N2CCC([C@H]3c4ncc(Br)cc4CCc4cc(Cl)cc(Br)c43)CC2)CC1` [Example 3], the IC50 in test [1] worked out at 7.3 nM; with COS Cell, 9 nM; in test [2] it was 10 nM; in the test on Human tumor cells, 100 nM.

Consider `CCCS(=O)(=O)N1CCC(CC(=O)N2CCC([C@H]3c4ncc(Br)cc4CCc4cc(Cl)cc(Br)c43)CC2)CC1` [Example 7], for which the values for the IC50 in the test on COS Cell and in the test with Human tumor cells were 30 nM and 250 nM, respectively.

As to `O=C(CC1CCN(S(=O)(=O)Cc2ccccc2)CC1)N1CCC([C@H]2c3ncc(Br)cc3CCc3cc(Cl)cc(Br)c32)CC1` [Example 9], the IC50 with COS Cell is 350 nM.

The molecule `CC1(C)C2CCC1(CS(=O)(=O)N1CCC(CC(=O)N3CCC([C@H]4c5ncc(Br)cc5CCc5cc(Cl)cc(Br)c54)CC3)CC1)C(=O)C2` (stereo partly shown) [Example 11] registered an IC50 in test [1] of 34.8 nM.

As for `O=C(CC1CCN(S(=O)(=O)c2ccc(-c3ccccn3)s2)CC1)N1CCC([C@H]2c3ncc(Br)cc3CCc3cc(Cl)cc(Br)c32)CC1` [Example 12], the inhibition at […] in test [1] (@73 nM, read-out: FPT inhibition (H-ras) at a single concentration) was 34%.

In turn, `O=C(CC1CCN(S(=O)(=O)c2cccs2)CC1)N1CCC([C@H]2c3ncc(Br)cc3CCc3cc(Cl)cc(Br)c32)CC1` [Example 13] returned a concentration for half-maximal inhibition (IC50) in test [1] of 20 nM.

As for `Cn1cnc(S(=O)(=O)N2CCC(CC(=O)N3CCC([C@H]4c5ncc(Br)cc5CCc5cc(Cl)cc(Br)c54)CC3)CC2)c1` [Example 14], the 50% inhibitory concentration (IC50) came to 5.7 nM in test [1] and 23 nM in test [2].

`CS(=O)(=O)N1CCC(CC(=O)N2CCN(C3c4ccc(Cl)cc4CCc4cc(Br)cnc43)CC2)CC1` (stereo not shown) [Example 15]: the IC50 in test [1] came to 54 nM.

`NS(=O)(=O)N1CCC(CC(=O)N2CCN(C3c4ccc(Cl)cc4CCc4cc(Br)cnc43)CC2)CC1` (stereo not shown) [Example 16] gave an IC50 in test [1] of 80 nM.
